Assay results from publication PMC13083723 (Patterns, 2026).

Columns and labels:
[1] = tested on: A549 cells; assay: PLD assay of predicted ENZO library compounds in A549 cells; conditions: Homo sapiens, A549, read-out: PLD effect % in A549
[2] = tested on: Vero-E6 cells; assay: cells; format: cell-based; conditions: Chlorocebus sabaeus, Vero C1008, 24 h, read-out: PLD effect % in Vero-E6
[3] = tested on: CaCo2 cells; conditions: 10 μM in-assay concentration; ENZO library; amiodarone as positive control

OCCN1CCN(CCCN2c3ccccc3Sc3ccc(C(F)(F)F)cc32)CC1 [Fluphenazine]
activation at 10 µM [1]: 77.4% | activation at 10 µM [2]: 90.3% | PLD effect % in CaCo2 [3]: 95.4%

CN1CCCC(n2nc(Cc3ccc(Cl)cc3)c3ccccc3c2=O)CC1 (stereo not drawn) [Azelastine]
activation at 10 µM [1]: 89.8% | activation at 10 µM [2]: 81.7% | PLD effect % in CaCo2 [3]: 36.5%
